Data from patent US11566007B2, “Ras inhibitors” (Revolution Medicines, Inc., priority 2019, dated 2023).
Like-named read-outs stand apart in the source and are kept apart here.

Columns and labels:
[1] = tested on: NCI-H358 (K-Ras G12C); assay: CellTiter-Glo cell viability assay, NCI-H358; type: cell-based, human; conditions: Homo sapiens, NCI-H358, 120 h
In short: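 Four-parameter logistic fits were applied to luminescence data normalized against DMSO-treated wells. Readings were taken on day 5 following direct compound addition, after roughly 30 minutes at room temperature.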

[2] = molecular target: K-Ras G13C (Homo sapiens (Human), UniProt P01116+P62937, G13C); assay: Ras-Raf (BRAF RBD) disruption / FRET / MOA assay, KRAS G13C; type: biochemical
In short: (§1)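 Compound-driven ternary complex of nucleotide-loaded Ras with cyclophilin A, disrupting BRAF RBD binding. 10-point 3-fold dilution from 30 μM final, 3 h at 25° C, then anti-His Eu-W1024 (10 nM) and anti-GST allophycocyanin (50 nM) for 1.5 h. IC50 from TR-FRET ratio decrease versus DMSO.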

[3] = molecular target: KRAS G12D (Homo sapiens (Human), UniProt P01116+P62937, G12D); assay: Ras-Raf (BRAF RBD) disruption / FRET / MOA assay, KRAS G12D; type: biochemical; conditions: Ras-Raf disruption/FRET/MOA assay; class symbols; read-out: KRAS G12D FRET data IC50
In short: as §1

[4] = molecular target: KRAS WT (Homo sapiens (Human), UniProt P01116+P62937); assay: Ras-Raf (BRAF RBD) disruption / FRET / MOA assay, KRAS WT; type: biochemical; conditions: read-out: IC50* KRAS WT FRET data
In short: as §1

[5] = molecular target: KRAS Q61H (Homo sapiens (Human), UniProt P01116+P62937, Q61H); assay: Ras-Raf (BRAF RBD) disruption / FRET / MOA assay, KRAS Q61H; type: biochemical; conditions: Ras-Raf disruption/FRET/MOA assay; class symbols; read-out: KRAS Q61H FRET data IC50
In short: (§2)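 Compounds (30 μM top final, 10-point 3-fold dilutions) incubated 3 h at 25° C with nucleotide-loaded Ras, cyclophilin A and BRAF RBD. Detection with 10 nM anti-His Eu-W1024 and 50 nM anti-GST allophycocyanin over another 1.5 h. Lowered TR-FRET ratio relative to DMSO wells gives IC50.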

[6] = molecular target: NRAS Q61R (Homo sapiens (Human), UniProt P01111+P62937, Q61R); assay: Ras-Raf (BRAF RBD) disruption / FRET / MOA assay, NRAS Q61R; type: biochemical; conditions: NRAS Q61R; Ras-Raf disruption/FRET/MOA assay; read-out: IC50* NRAS Q61R FRET data
In short: as §2

[7] = molecular target: NRAS Q61K (Homo sapiens (Human), UniProt P01111+P62937, Q61K); assay: Ras-Raf (BRAF RBD) disruption / FRET / MOA assay, NRAS Q61K; type: biochemical; conditions: NRAS Q61K; Ras-Raf disruption/FRET/MOA assay; read-out: IC50* NRAS Q61K FRET data
In short: as §2

[8] = NCI-H358, 5-day treatment, class symbols, read-out: Additional H358 Cell Viability assay data (K-Ras G12C, IC50)
[9] = KRAS G13C, Ras-Raf disruption/FRET/MOA assay, read-out: IC50* KRAS G13C FRET data

Sequence of NRAS Q61R (P01111 whole entry Q61R): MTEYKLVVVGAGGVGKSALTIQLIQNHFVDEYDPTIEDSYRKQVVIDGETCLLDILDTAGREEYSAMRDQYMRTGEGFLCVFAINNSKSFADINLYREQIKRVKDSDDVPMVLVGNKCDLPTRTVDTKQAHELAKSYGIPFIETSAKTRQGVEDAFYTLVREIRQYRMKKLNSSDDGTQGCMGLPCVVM
Sequence of NRAS Q61R (P62937 whole entry): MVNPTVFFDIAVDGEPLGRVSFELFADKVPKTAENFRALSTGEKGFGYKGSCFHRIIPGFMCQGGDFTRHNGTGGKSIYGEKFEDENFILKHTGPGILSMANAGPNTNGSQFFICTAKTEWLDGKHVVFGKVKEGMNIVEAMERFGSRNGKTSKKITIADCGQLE
Sequence of KRAS Q61H (P01116-2 other isoform, or with tags, fused parts or gaps Q61H): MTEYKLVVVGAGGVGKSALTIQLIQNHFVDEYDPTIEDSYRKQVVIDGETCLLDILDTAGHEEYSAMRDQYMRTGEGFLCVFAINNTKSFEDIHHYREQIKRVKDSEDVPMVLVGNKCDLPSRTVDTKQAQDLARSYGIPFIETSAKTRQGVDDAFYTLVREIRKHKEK
Sequence of KRAS Q61H (P62937 whole entry): as the sequence (P62937 whole entry) above
Sequence of KRAS G12D (P01116-2 other isoform, or with tags, fused parts or gaps G12D): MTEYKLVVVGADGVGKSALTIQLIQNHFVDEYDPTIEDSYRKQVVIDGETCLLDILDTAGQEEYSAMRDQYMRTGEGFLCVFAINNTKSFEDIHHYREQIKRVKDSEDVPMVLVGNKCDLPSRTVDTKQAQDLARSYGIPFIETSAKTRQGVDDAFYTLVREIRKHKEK
Sequence of KRAS G12D (P62937 whole entry): as the sequence (P62937 whole entry) above
Sequence of NRAS Q61K (P01111 whole entry Q61K): as the sequence (P01111 whole entry Q61R) above, with R61K counted along it
Sequence of NRAS Q61K (P62937 whole entry): as the sequence (P62937 whole entry) above
Sequence of KRAS WT (P01116-2 other isoform, or with tags, fused parts or gaps): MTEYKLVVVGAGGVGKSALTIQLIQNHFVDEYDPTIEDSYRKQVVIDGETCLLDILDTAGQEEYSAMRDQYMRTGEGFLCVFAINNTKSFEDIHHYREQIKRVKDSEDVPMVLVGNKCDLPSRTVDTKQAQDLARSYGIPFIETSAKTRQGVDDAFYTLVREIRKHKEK
Sequence of KRAS WT (P62937 whole entry): as the sequence (P62937 whole entry) above
Sequence of K-Ras G13C (P01116-2 other isoform, or with tags, fused parts or gaps G13C): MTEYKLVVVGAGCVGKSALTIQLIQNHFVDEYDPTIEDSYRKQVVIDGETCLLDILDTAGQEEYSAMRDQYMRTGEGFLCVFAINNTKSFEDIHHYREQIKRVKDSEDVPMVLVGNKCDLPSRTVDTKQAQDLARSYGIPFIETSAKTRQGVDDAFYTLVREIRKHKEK
Sequence of K-Ras G13C (P62937 whole entry): as the sequence (P62937 whole entry) above

SMILES	IC50 [1, 8] [µM]	IC50 [2, 9] [nM]	IC50 [3] [nM]	IC50 [4] [nM]	IC50 [5] [nM]	IC50 [6] [nM]	IC50 [7] [nM]	IC50 ([1]; read-out: H358 Cell Viability (K-Ras G12C) IC50, uM, NCI-H358, 5-day treatment) [µM]	IC50 ([2]; with Cyclophilin A, BRAF RBD, read-out: FRET (K-Ras G13C) IC50) [nM]	IC50 ([1]; read-out: Additional H358 Cell Viability assay data (K-Ras G12C, IC50, uM), NCI-H358, 5-day treatment, class symbols) [µM]
C=CC(=O)N1CCN(C(=O)N(C)[C@H](C(=O)N[C@H]2Cc3nc(cs3)-c3ccc4c(c3)c(c(-c3cccnc3[C@H](C)OC)n4CC)CC(C)(C)COC(=O)[C@@H]3CCCN(N3)C2=O)C(C)C)[C@H]2C[C@H]21 (atropisomer, axis not shown) [Example A737]	0.01 to 0.1	10 to 100	100 to 1000	10 to 100	10 to 100	10 to 100	10 to 100			
C=CS(=O)(=O)N1CCC(C(=O)N(C)[C@H](C(=O)N[C@H]2Cc3nc(cs3)-c3ccc4c(c3)c(c(-c3cncnc3)n4CC)CC(C)(C)COC(=O)[C@@H]3CCCN(N3)C2=O)C(C)C)C1 (single isomer, unassigned) [Example A170]	0.1 to 1	1000 to 10000	> 10000	> 10000	> 10000	> 10000	> 10000			
C=CS(=O)(=O)N1CCC(C(=O)N(C)[C@H](C(=O)N[C@H]2Cc3cccc(c3)-c3ccc4c(c3)c(c(-c3cncnc3)n4CC)CC(C)(C)COC(=O)[C@@H]3CCCN(N3)C2=O)C(C)C)C1 (single isomer, unassigned) [Example A171]	0.1 to 1	1000 to 10000	> 10000	> 10000	> 10000	> 10000	> 10000			
C=CC(=O)N1CC[C@H](C(=O)N(C)[C@H](C(=O)N[C@H]2Cc3cc(ccn3)-c3ccc4c(c3)c(c(-c3cccnc3COC)n4CC)CC(C)(C)COC(=O)[C@@H]3CCCN(N3)C2=O)C(C)C)C1 [Example A136]	> 1	> 10000	> 10000	> 10000	1000 to 10000	> 10000	> 10000			
C=CC(=O)N1CC[C@H](C(=O)N(C)[C@H](C(=O)N[C@H]2Cc3cc(O)cc(c3)-c3ccc4c(c3)c(c(-c3cncs3)n4CC)CC(C)(C)COC(=O)[C@@H]3CCCN(N3)C2=O)C(C)C)C1 [Example A143]	0.01 to 0.1	> 10000	> 10000	> 10000	1000 to 10000	> 10000	1000 to 10000			
C=CC(=O)N1CC[C@H](C(=O)N(C)[C@H](C(=O)N[C@H]2Cc3cc(O)cc(c3)-c3ccc4c(c3)c(c(-c3cccc(=O)n3C(C)C)n4CC)CC(C)(C)COC(=O)[C@@H]3CCCN(N3)C2=O)C(C)C)C1 [Example A151]	0.1 to 1	> 10000	> 10000	> 10000	1000 to 10000	> 10000	1000 to 10000			
C=CC(=O)N1CC[C@H](C(=O)N(C)[C@H](C(=O)N[C@H]2Cc3cc(O)cc(c3)-c3ccc4c(c3)c(c(-c3cccnc3)n4[C@H](C)C#N)CC(C)(C)COC(=O)[C@@H]3CCCN(N3)C2=O)C(C)C)C1 [Example A193]		1000 to 10000	> 10000	1000 to 10000	100 to 1000	1000 to 10000	1000 to 10000	0.054	10200	
C=CC(=O)N1CC[C@H](C(=O)N(C)[C@H](C(=O)N[C@H]2Cc3cc(O)cc(c3)-c3ccc4c(c3)c(c(-c3c(C)cccc3C)n4CC)CC(C)(C)COC(=O)[C@@H]3CCCN(N3)C2=O)C(C)C)C1 [Example A226]	0.1 to 1	> 10000	> 10000	> 10000	1000 to 10000	> 10000	> 10000			
C=CC(=O)N1CC[C@H](C(=O)N(C)[C@H](C(=O)N[C@H]2Cc3cc(O)cc(c3)-c3ccc4c(c3)c(c(-c3cccc5c3COC5)n4CC)CC(C)(C)COC(=O)[C@@H]3CCCN(N3)C2=O)C(C)C)C1 [Example A227]	0.1 to 1	1000 to 10000	> 10000	1000 to 10000	1000 to 10000	> 10000	1000 to 10000			
C=CC(=O)N1CC[C@H](C(=O)N(C)[C@H](C(=O)N[C@H]2Cc3cc(O)cc(c3)-c3ccc4c(c3)c(c(-c3ncn(C)c3[C@H](C)OC)n4CC)CC(C)(C)COC(=O)[C@@H]3CCCN(N3)C2=O)C(C)C)C1 [Example A301]		1000 to 10000	> 10000	> 10000	1000 to 10000	> 10000	> 10000			0.1 to 1
C=CC(=O)N1CC[C@H](C(=O)N(C)[C@H](C(=O)N[C@H]2Cc3cc(O)cc(c3)-c3ccc4c(c3)c(c(-c3cnc(N(C)C)s3)n4CC)CC(C)(C)COC(=O)[C@@H]3CCCN(N3)C2=O)C(C)C)C1 [Example A302]	0.01 to 0.1	100 to 1000	> 10000	1000 to 10000	1000 to 10000	> 10000	> 10000			
C=CC(=O)N1CC[C@H](C(=O)N(C)[C@H](C(=O)N[C@H]2Cc3cc(O)cc(c3)-c3ccc4c(c3)c(c(-c3csc(N(C)C)n3)n4CC)CC(C)(C)COC(=O)[C@@H]3CCCN(N3)C2=O)C(C)C)C1 [Example A303]	0.1 to 1	> 10000	> 10000	> 10000	1000 to 10000	> 10000	> 10000			
C=CC(=O)N1CCOC2(CCN(C(=O)N(C)[C@H](C(=O)N[C@H]3C[C@H]4CN(CCO4)c4ccc5c(c4)c(c(-c4cccnc4[C@H](C)OC)n5CC)CC(C)(C)COC(=O)[C@@H]4CCCN(N4)C3=O)C(C)C)CC2)C1 [Example A564]	0.01 to 0.1	10 to 100	1000 to 10000	100 to 1000	100 to 1000	1000 to 10000	1000 to 10000			
CCn1c(-c2cccnc2[C@H](C)OC)c2c3cc(ccc31)-c1cccc(c1)CC(NC(=O)[C@H](C(C)C)N1CC[C@]3(CCN(C(=O)C#C[C@@H]4COCCN4C4COC4)C3)C1=O)C(=O)N1CCC[C@H](N1)C(=O)OCC(C)(C)C2 (stereo partly drawn) [Example A565]	0.01 to 0.1	1000 to 10000	> 10000	> 10000	1000 to 10000	> 10000	> 10000			
C=CC(=O)N1CC[C@H](C(=O)N(C)[C@H](C(=O)N[C@H]2Cc3cccc(c3)-c3ccc4c(c3)c(c(-c3cccnc3[C@H](C)OC)n4CC)CC(C)(C)COC(=O)[C@@H]3CCCN(N3)C2=O)C(C)C(F)(F)F)C1 (stereo partly drawn) [Example A641]	0.01 to 0.1	1000 to 10000	> 10000	1000 to 10000	1000 to 10000	1000 to 10000	1000 to 10000			
CCn1c(-c2cccnc2[C@H](C)OC)c2c3cc(ccc31)C1CCCN(C1)C[C@H](NC(=O)[C@@H](COC1CN(C(=O)C#CC(C)(C)N(C)C)C1)C(C)C)C(=O)N1CCC[C@H](N1)C(=O)OCC(C)(C)C2 [Example A646, (2R)-2-(((1-(4-(dimethylamino)-4-methylpent-2-ynoyl)azetidin-3-yl)oxy)methyl)-N-((6^3S,4S)-1^1-ethyl-1^2-(2-((S)-1-methoxyethyl)pyridin-3-yl)-10,10-dimethyl-5,7-dioxo-6^1,6^2,6^3,6^4,6^5,6^6-hexahydro-1^1H-8-oxa-1(5,3)-indola-6(1,3)-pyridazina-2(3,1)-piperidinacycloundecaphane-4-yl)-3-methylbutanamide]	0.01 to 0.1	> 10000	> 10000	> 10000	> 10000	> 10000	> 10000			
C=CC(=O)C1CC[C@H](C(=O)N(C)[C@H](C(=O)N[C@H]2Cc3nsc(n3)-c3ccc4c(c3)c(c(-c3cccnc3[C@H](C)OC)n4CC)CC(C)(C)COC(=O)[C@@H]3CCCN(N3)C2=O)C(C)C)C1 (stereo partly drawn) [Example A694]	0.01 to 0.1	100 to 1000	1000 to 10000	1000 to 10000	100 to 1000	1000 to 10000	100 to 1000			
